In paper PMC9611727, “Optimization of a Novel Mandelamide-Derived Pyrrolopyrimidine Series of PERK Inhibitors” (Pharmaceutics, 2022):

How the values were obtained:
Assay in all cases: scanMAX kinase panel
Type in all cases: binding
Settings in all cases: read-out: % Control; for remaining binding at 1 µM: 1000 nM
CDK11 = target: T1, CDK11 (Homo sapiens, UniProt Q9BWU1)
T1 construct: purchased DiscoverX scanMAX
Text: (§1) Supplemental Table S2. scanMAXSM Kinome Assay Results. Complete tabulated data of all 468 kinases from the panel, including
(§2) 403 wild-type and 65 mutant isoforms. […] Cmpd 11 and Cmpd 24

EIF2AK1 = target: T2, EIF2AK1 (Homo sapiens, UniProt Q9BQI3)
T2 construct: purchased DiscoverX scanMAX
Text: as §1, §2

MEK5 = target: T3, MEK5 (Homo sapiens, UniProt Q13163)
T3 construct: purchased DiscoverX scanMAX
T3 sequence (Q13163 1-448): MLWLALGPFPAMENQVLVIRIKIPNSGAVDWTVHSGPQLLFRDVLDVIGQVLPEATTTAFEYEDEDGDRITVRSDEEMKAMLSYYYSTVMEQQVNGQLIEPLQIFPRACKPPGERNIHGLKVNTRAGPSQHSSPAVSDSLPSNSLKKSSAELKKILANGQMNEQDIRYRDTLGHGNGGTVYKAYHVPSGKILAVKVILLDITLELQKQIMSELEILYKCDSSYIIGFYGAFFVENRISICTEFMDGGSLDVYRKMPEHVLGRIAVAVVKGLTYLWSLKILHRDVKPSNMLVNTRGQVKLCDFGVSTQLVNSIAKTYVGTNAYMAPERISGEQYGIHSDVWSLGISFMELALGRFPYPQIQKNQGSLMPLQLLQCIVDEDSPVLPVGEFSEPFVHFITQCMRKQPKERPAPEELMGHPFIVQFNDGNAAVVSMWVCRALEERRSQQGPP
Text: as §1, §2

PRKR = target: T4, PRKR (Homo sapiens, UniProt P19525)
T4 construct: purchased DiscoverX scanMAX
Text: as §1, §2

TYK2(JH2domain-pseudok.) = target: T5, TYK2(JH2domain-pseudok.) (Homo sapiens, UniProt P29597)
T5 construct: TYK2(JH2domain-pseudok.); purchased DiscoverX (scanMAX panel)
Text: as §1, §2

YSK4 = target: T6, YSK4 (Homo sapiens, UniProt Q56UN5)
T6 construct: purchased DiscoverX (scanMAX panel)
T6 sequence (Q56UN5 1-1328): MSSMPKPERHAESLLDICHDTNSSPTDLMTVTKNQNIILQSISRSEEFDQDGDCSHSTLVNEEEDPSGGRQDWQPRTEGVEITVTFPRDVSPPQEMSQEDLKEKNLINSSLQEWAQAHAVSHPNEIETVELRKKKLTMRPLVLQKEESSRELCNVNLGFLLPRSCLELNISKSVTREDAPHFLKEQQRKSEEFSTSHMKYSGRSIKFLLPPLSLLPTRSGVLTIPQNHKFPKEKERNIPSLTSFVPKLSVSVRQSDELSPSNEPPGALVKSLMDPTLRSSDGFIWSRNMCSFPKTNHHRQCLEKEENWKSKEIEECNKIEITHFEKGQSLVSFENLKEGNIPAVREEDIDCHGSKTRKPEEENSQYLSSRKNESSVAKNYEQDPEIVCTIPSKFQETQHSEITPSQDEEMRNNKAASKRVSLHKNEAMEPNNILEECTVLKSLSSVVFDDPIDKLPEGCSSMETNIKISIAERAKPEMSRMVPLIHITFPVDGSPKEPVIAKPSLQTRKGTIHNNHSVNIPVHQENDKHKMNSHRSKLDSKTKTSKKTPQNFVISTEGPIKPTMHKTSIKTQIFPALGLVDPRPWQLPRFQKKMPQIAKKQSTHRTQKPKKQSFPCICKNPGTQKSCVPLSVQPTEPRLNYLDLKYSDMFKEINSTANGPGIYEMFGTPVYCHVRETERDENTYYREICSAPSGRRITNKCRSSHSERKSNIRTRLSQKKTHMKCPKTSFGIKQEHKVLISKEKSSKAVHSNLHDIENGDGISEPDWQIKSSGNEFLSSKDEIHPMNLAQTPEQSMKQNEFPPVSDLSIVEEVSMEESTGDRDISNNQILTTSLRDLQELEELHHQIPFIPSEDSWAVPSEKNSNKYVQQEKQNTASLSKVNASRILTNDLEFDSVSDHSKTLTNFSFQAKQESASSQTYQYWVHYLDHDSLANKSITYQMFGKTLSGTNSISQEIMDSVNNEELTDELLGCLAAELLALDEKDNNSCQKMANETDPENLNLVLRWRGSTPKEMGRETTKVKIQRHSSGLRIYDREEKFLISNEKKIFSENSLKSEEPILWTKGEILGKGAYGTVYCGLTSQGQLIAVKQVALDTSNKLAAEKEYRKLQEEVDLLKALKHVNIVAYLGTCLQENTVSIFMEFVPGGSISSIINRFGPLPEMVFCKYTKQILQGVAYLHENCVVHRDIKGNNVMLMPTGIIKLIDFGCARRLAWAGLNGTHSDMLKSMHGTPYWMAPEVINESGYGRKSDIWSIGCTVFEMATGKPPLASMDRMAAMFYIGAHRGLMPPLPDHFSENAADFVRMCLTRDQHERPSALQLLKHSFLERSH
Text: as §1, §2

T4 sequence (P19525 whole entry): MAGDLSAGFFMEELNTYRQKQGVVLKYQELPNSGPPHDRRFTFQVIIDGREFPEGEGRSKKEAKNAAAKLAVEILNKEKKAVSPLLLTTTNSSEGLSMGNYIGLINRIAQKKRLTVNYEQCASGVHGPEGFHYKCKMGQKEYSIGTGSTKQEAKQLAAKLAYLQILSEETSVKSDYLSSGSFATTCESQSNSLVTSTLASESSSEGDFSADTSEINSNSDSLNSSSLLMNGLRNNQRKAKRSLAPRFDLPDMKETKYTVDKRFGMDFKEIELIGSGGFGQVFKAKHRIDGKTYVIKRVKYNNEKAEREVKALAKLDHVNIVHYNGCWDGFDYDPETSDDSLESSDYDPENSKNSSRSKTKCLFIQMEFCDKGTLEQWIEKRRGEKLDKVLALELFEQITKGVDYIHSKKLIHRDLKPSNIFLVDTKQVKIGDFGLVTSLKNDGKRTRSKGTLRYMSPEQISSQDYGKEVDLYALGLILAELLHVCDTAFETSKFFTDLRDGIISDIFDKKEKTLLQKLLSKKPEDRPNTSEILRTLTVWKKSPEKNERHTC
T1 sequence (Q9BWU1 whole entry): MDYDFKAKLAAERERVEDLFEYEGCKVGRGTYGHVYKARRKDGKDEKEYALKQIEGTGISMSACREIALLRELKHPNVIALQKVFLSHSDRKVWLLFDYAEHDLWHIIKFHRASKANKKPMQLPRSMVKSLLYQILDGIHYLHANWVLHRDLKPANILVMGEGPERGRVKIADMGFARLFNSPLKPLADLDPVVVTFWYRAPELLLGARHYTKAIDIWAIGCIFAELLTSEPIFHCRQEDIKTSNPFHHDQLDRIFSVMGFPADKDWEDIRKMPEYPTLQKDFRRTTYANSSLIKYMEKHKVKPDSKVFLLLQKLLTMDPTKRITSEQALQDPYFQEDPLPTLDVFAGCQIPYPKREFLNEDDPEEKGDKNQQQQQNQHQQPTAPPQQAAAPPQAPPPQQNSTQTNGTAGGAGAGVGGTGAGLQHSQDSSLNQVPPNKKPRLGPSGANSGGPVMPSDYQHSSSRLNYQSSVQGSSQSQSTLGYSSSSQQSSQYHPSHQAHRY
T5 sequence (P29597 589-875 limits assumed): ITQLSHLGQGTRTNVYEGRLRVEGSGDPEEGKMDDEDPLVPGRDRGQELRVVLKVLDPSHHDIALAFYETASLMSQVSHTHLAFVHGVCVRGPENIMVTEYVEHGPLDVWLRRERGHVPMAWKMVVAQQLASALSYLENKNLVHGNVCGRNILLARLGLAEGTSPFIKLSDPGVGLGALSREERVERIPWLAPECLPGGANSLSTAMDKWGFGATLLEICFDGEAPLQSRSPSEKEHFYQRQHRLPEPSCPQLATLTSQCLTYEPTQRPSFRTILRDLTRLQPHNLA
T2 sequence (Q9BQI3 whole entry): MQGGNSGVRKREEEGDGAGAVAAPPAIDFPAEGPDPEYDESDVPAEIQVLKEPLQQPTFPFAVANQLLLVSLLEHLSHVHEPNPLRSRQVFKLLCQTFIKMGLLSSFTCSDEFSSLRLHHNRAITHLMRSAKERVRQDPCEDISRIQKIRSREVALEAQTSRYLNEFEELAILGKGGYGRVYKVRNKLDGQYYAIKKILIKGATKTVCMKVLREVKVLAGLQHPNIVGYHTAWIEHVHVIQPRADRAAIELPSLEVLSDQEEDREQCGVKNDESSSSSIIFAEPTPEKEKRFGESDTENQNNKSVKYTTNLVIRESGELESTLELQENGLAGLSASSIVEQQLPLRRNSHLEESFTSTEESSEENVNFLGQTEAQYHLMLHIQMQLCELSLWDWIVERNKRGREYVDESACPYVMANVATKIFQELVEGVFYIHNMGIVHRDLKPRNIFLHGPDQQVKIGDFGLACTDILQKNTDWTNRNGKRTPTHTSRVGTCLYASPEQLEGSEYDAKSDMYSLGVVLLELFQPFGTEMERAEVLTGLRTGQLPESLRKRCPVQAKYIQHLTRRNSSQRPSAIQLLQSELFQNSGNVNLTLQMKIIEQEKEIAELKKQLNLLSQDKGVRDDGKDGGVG

Compound	remaining binding at 1 µM (CDK11) [%]	remaining binding at 1 µM (EIF2AK1) [%]	remaining binding at 1 µM (MEK5) [%]	remaining binding at 1 µM (PRKR) [%]	remaining binding at 1 µM (TYK2(JH2domain-pseudok.)) [%]	remaining binding at 1 µM (YSK4) [%]	remaining binding at 0.1 µM (CDK11; 100 nM) [%]	remaining binding at 0.1 µM (EIF2AK1; 100 nM) [%]	remaining binding at 0.1 µM (MEK5; 100 nM) [%]	remaining binding at 0.1 µM (PRKR; 100 nM) [%]	remaining binding at 0.1 µM (TYK2(JH2domain-pseudok.); 100 nM) [%]	remaining binding at 0.1 µM (YSK4; 100 nM) [%]
Cc1cc(NC(=O)[C@H](O)c2cccc(F)c2)ccc1-c1cn(C)c2ncnc(N)c12 [Compound 11, (R)-N-(4-(4-amino-7-methyl-7H-pyrrolo[2,3-d]pyrimidin-5-yl)-3-methylphenyl)-2-(3-fluorophenyl)-2-hydroxy acetamide]	1	49	1.1	42	80	18	–	–	–	–	–	–
Cc1nc(N)c2c(-c3ccc(NC(=O)[C@H](O)c4cccc(F)c4)cc3C)cn(C)c2n1 [Compound 24]	89	73	100	42	79	100	–	–	–	–	–	–
Cc1nc(N)c2c(-c3ccc(NC(=O)[C@H](O)c4cccc(C(F)(F)F)c4)cc3C)cn(C)c2n1 [Compound 26]	8.2	78	68	96	30	55	89	89	100	91	98	95
